Data: paper PMC4752462 (PLoS ONE, 2016)
Values joined by “and” are separate entries in the source; they are usually repeats but may differ in a detail not shown here. Identical values can stand only once.

Columns and labels:
[1] = in vitro; assay type: in vitro ADME, human; details: human, microsomes
Description: (§1) The reaction was carried out using human liver microsomes in 0.1 M potassium phosphate buffer at pH 7.4 as described previously. […] After pre-incubation at 37°C for 10 minutes, 3 mM final concentration of NADPH was added to initiate the metabolic reaction. After 7 minutes incubation at 37°C the reactions were terminated by adding 1:3 volumes of cold acetonitrile. For the time kinetic study, the reaction was terminated at various time points (0.0, 2.5, 5, 10, 15, 20, 30, and 60 minutes). […] The Prior to LCMS/MS analysis the analyte was extracted from the microsomes by a protein precipitation method as described previously. The concentrations of all the drugs were quantified using Ab Sciex Analyst® software. Microsomal kinetic data were analyzed using Michaelis-Menten and exponential decay equations. CYP3A4 inhibition data were evaluated by fitting the values to dose-response inhibition and calculated IC50 values were reported. All graphs were plotted and two-tailed t-tests were performed wherever appropriate using GraphPad Prism 5.01 (GraphPad, San Diego, CA). Significant differences between more than two groups analyzed with one-way ANOVA followed by Dunnett's multiple comparison tests using IBM […] version 20. […] To study the influence of alcohol consumption on EVG metabolism, 20 mM ethanol (physiological concentration in moderate drinker) was used to treat human liver microsomes. […] EVG degradation/metabolism at 4 μM followed a pseudo-first-order kinetic. Therefore, we fit the data to an exponential one phase decay equation to determine the apparent half-life (t1/2) and rate constant K.

[2] = test system: human liver microsomes; test: in vitro; assay type: in vitro ADME; details: for EVG remaining: human, microsomes, 4 μM, pH 7.4
Description: as §1

[3] = Substrate (saturation) kinetics of EVG metabolism in human liver microsomes; assay type: in vitro ADME; details: human
Description: (§2) The reaction was carried out using human liver microsomes in 0.1 M potassium phosphate buffer at pH 7.4 as described previously. […] After pre-incubation at 37°C for 10 minutes, 3 mM final concentration of NADPH was added to initiate the metabolic reaction. After 7 minutes incubation at 37°C the reactions were terminated by adding 1:3 volumes of cold acetonitrile. For the time kinetic study, the reaction was terminated at various time points (0.0, 2.5, 5, 10, 15, 20, 30, and 60 minutes). […] The Prior to LCMS/MS analysis the analyte was extracted from the microsomes by a protein precipitation method as described previously. The concentrations of all the drugs were quantified using Ab Sciex Analyst® software. Microsomal kinetic data were analyzed using Michaelis-Menten and exponential decay equations. CYP3A4 inhibition data were evaluated by fitting the values to dose-response inhibition and calculated IC50 values were reported. All graphs were plotted and two-tailed t-tests were performed wherever appropriate using GraphPad Prism 5.01 (GraphPad, San Diego, CA). Significant differences between more than two groups analyzed with one-way ANOVA followed by Dunnett's multiple comparison tests using IBM […] version 20.

[4] = test system: human liver microsomes; test: as above; assay type: in vitro ADME
Description: as §2

[5] = test system: CYP3A; set-up: method as in PMID 21348537; details: read-out: IC50 for CYP3A inhibition; cited from earlier work
[6] = plasma pharmacokinetics; cited from earlier work
[7] = test system: CYP3A4; details: based on the EVG metabolic activity; cited from earlier work
[8] = three values per group used for statistics

## COc1cc2c(cc1Cc1cccc(Cl)c1F)c(=O)c(C(=O)O)cn2[C@H](CO)C(C)C [EVG, Elvitegravir]
[1]; pH 7.4, Half-life
  half-life at 4 μM: 12.1 min
[1]; pH 7.4, Half-life (minutes)
  half-life at 4 μM: 17 ± 1 min
[2]; With Ethanol, three values per group
  Rate Constant 'K': 0.05
[2]; 0 h
  EVG remaining: 100 % of control
[2]; 2.5 min
  EVG remaining: 96.6 % of control
[2]; 5 min
  EVG remaining: 93.5 % of control
[2]; 10 min
  EVG remaining: 77.8 % of control
[2]; 0.25 h
  EVG remaining: 63.6 % of control
[2]; 20 min
  EVG remaining: 45.2 % of control
[2]; 0.5 h
  EVG remaining: 30.4 % of control
[2]; 1 h
  EVG remaining: 14.2 % of control
[3]; pH 7.4, EVG 4-200 μM, COBI at same ratio, EtOH 20 mM
  Km at 7 min: 68 ± 17 µM
[3]; pH 7.4, in the presence of ethanol
  Km at 7 min: 115 ± 18 µM
[3]; pH 7.4, three values per group used for statistics
  Km at 7 min: 68.3 µM
[3]; pH 7.4, when COBI is present
  Km at 7 min: 189 ± 46 µM
[4]; EVG 4
  enzyme activity (Fig 4 data): 3.7 μmol/min/mg protein
[4]; EVG 8
  enzyme activity (Fig 4 data): 7.7 μmol/min/mg protein
[4]; EVG 20
  enzyme activity (Fig 4 data): 19.5 μmol/min/mg protein
[4]; EVG 40
  enzyme activity (Fig 4 data): 38.6 μmol/min/mg protein
[4]; EVG 60
  enzyme activity (Fig 4 data): 55.9 μmol/min/mg protein
[4]; EVG 80
  enzyme activity (Fig 4 data): 68.9 μmol/min/mg protein
[4]; EVG 100
  enzyme activity (Fig 4 data): 74.7 μmol/min/mg protein
[4]; EVG 120
  enzyme activity (Fig 4 data): 71.9 μmol/min/mg protein
[4]; EVG 160
  enzyme activity (Fig 4 data): 70.9 μmol/min/mg protein
[4]; EVG 200
  enzyme activity (Fig 4 data): 84.3 μmol/min/mg protein
[4]; EVG alone
  Vmax: 162 ± 16 μmol/min/mg protein
[4]; in the presence of ethanol
  Vmax: 221 ± 18 μmol/min/mg protein
[4]; [8]
  Km: 65.2 µM and 68.7 µM
  Vmax: 162.1 and 157.8 and 158.3
[4]; when COBI is present
  Vmax: 308 ± 45 μmol/min/mg protein
[5]
  IC50: 63 µM
[6]
  plasma half-life: 120 to 180 min
[7]
  Km: 21.5 µM
